Blank lines part the entries; values can stand above or below the compound they belong to.
What was measured:
[1] = biological target: Peptidyl-prolyl cis-trans isomerase FKBP1A (Homo sapiens, UniProt P62942); test: Binding affinity for FK506 binding protein 12 using [3H]-dihydro FK-506 radioligand was determined
Mus musculus [2] = test: Immunosuppressive activity was determined by ex vivo murine-based model of immunosuppression, compound was administered intravenously in mouse.; type: functional; details: iv
Mus musculus [3] = test: Immunosuppressive activity was determined by ex vivo murine-based model of immunosuppression, compound was administered perorally in mouse.; type: functional; details: po
Rattus norvegicus [4] = test: Nephrotoxic potential was tested in spontaneously hypertensive rats by administering 20 mg/kg/day intraperitoneally for 5 days; type: functional; details: route intraperitoneal
Mus musculus [5] = test: Neurotoxic activity was determined by measuring compound-induced hypothermia in BALB/c mice, after administering intravenously in mouse.; type: functional; details: iv
[6] = Therapeutic index was determined as mouse hypothermia ED50/murine ex vivo ED50; details: read-out: Therapeutic index
Rattus norvegicus [7] = test: Nephrotoxic potential was tested in spontaneously hypertensive rats by administering 40 mg/kg/day intraperitoneally for 5 days; type: functional; details: route intraperitoneal
Rattus norvegicus [8] = test: Nephrotoxic potential was tested in spontaneously hypertensive rats by administering 10 mg/kg/day intraperitoneally for 5 days; type: functional; details: route intraperitoneal
Rattus norvegicus [9] = test: Nephrotoxic potential was tested in spontaneously hypertensive rats by administering 0 mg/kg/day intraperitoneally for 5 days; type: functional; details: route intraperitoneal

Peptidyl-prolyl cis-trans isomerase FKBP1A, sequence (P62942 whole entry): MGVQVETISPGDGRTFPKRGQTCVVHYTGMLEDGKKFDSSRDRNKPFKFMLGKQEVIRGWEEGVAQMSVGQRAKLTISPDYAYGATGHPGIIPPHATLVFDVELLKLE

SMILES: C=CC[C@@H]1/C=C(\C)C[C@H](C)C[C@H](OC)[C@H]2O[C@@](O)(C(=O)C(=O)N3CCCC[C@H]3C(=O)O[C@H](/C(C)=C/[C@@H]3CC[C@@H](O)[C@H](OC)C3)[C@H](C)[C@@H](O)CC1=O)[C@H](C)C[C@@H]2OC [TACROLIMUS ANHYDROUS]
ED50 (Mus musculus [2]): 0.24 mg/kg | ED50 (Mus musculus [3]): 2.6 mg/kg | BUN (Rattus norvegicus [4]): 43 mg/dL | ED50 (Mus musculus [5]): 3.5 mg/kg | selectivity ratio [6]: 15 | BUN (Rattus norvegicus [7]): 76 mg/dL | BUN (Rattus norvegicus [8]): 22 mg/dL | BUN (Rattus norvegicus [9]): 20 mg/dL

SMILES: CC[C@@H]1/C=C(\C)C[C@H](C)C[C@H](OC)[C@H]2O[C@@](O)(C(=O)C(=O)N3CCCC[C@H]3C(=O)O[C@H](/C(C)=C/[C@@H]3CC[C@@H](OCc4nc(-c5ccccc5)c[nH]4)[C@H](OC)C3)[C@H](C)[C@@H](O)CC1=O)[C@H](C)C[C@@H]2OC
EC50 [1]: 22 nM

SMILES: CC[C@@H]1/C=C(\C)C[C@H](C)C[C@H](OC)[C@H]2O[C@@](O)(C(=O)C(=O)N3CCCC[C@H]3C(=O)O[C@H](/C(C)=C/[C@@H]3CC[C@@H](OCc4nccn4Cc4ccccc4)[C@H](OC)C3)[C@H](C)[C@@H](O)CC1=O)[C@H](C)C[C@@H]2OC
EC50 [1]: 7.4 nM

The remaining lines, values ahead:

EC50 [1]: 30 nM
SMILES: CC[C@@H]1/C=C(\C)C[C@H](C)C[C@H](OC)[C@H]2O[C@@](O)(C(=O)C(=O)N3CCCC[C@H]3C(=O)O[C@H](/C(C)=C/[C@@H]3CC[C@@H](OC/C=C/c4ccccc4)[C@H](OC)C3)[C@H](C)[C@@H](O)CC1=O)[C@H](C)C[C@@H]2OC

EC50 [1]: 12 nM
SMILES: CC[C@@H]1/C=C(\C)C[C@H](C)C[C@H](OC)[C@H]2O[C@@](O)(C(=O)C(=O)N3CCCC[C@H]3C(=O)O[C@H](/C(C)=C/[C@@H]3CC[C@@H](OCOCc4ccccc4)[C@H](OC)C3)[C@H](C)[C@@H](O)CC1=O)[C@H](C)C[C@@H]2OC

Source: ChEMBL document CHEMBL1131393, “C32-O-imidazol-2-yl-methyl ether derivatives of the immunosuppressant ascomycin with improved therapeutic potential” (Bioorg Med Chem Lett, 1998)
